{"source": "patent US12578273B2", "about": "“Ph-reversible leuco-BODIPY probe for in situ visualization of extracellular vesicles and their secretion from living cells” (The Chinese University of Hong Kong, priority 2021, dated 2026)", "format_in_all_cases": "cell-based", "key": {"[1]": {"tested_on": "EVs secreted by A549 cells", "test": "Estimation of the fluorescence signal per EV", "conditions": "5 μM leuco-BODIPY, 30 min, excitation 584 nm, emission 612 nm, net fluorescence divided by number of EVs (NTA)", "protocol": "(§1) Cells were pre-seeded in a 96-well plate in complete DMEM without phenol red. During the experiment, 200 μL of either fresh complete DMEM without phenol red or 5 μM leuco-BODIPY formulated in fresh complete DMEM without phenol red was added to the cells. After 30 min, the medium was collected and centrifuged for 10 min at 200×g to remove any dye-stained cell debris. The fluorescence signal in the medium was measured by a fluorescent plate reader (ThermoFisher Fluoroskan Ascent) at an excitation wavelength of 584 nm and emission wavelength of 612 nm. The net fluorescence in the dye-treated EV sample was determined by subtracting the background fluorescence of the untreated EV sample from the fluorescence of the dye-treated EV sample. Complete DMEM without phenol red was also used as a control to determine the background fluorescence of the blank culture medium. After the microplate reader experiment, each EV sample was made up to a total of 1 mL by adding DMEM without phenol red, followed by injection into a Malvern Nanosight NS500 instrument for measuring the total number of EVs in the sample. […] The fluorescence signal per EV was estimated by dividing (1) the net fluorescence (with background subtraction) of the EV sample as measured by the microplate reader by (2) the number of EVs in the sample as measured by NTA.\n(§2) Moreover, we incubated the three cell types with our probe for 30 min, isolated the EVs secreted to the culture medium, centrifuged the collected medium to remove any dye-stained cell fragments, and confirmed the detection of fluorescence in the isolated EVs (Table 1). By contrast, for the EVs isolated from the same cell types under the same culture conditions but without treatment by our probe, the fluorescence detected was at the background level of blank culture medium.\n(§3) Table 1: Estimate of the number of signals per EV. The fluorescence signal per EV is expressed in arbitrary units (a.u.), a relative value that highly depends on pH, dye concentration, and laser power. […]"}, "[2]": {"tested_on": "EVs secreted by HeLa cells", "test": "Estimation of the fluorescence signal per EV", "conditions": "5 μM leuco-BODIPY, 30 min, excitation 584 nm, emission 612 nm, net fluorescence divided by number of EVs (NTA)", "protocol": "as §1, §2, §3"}, "[3]": {"tested_on": "EVs secreted by HEK293 cells", "test": "Estimation of the fluorescence signal per EV", "conditions": "5 μM leuco-BODIPY, 30 min, excitation 584 nm, emission 612 nm, net fluorescence divided by number of EVs (NTA)", "protocol": "as §1, §2, §3"}, "HEK293 cells [4]": {"tested_on": "HEK293 cells", "test": "Cytotoxicity of the probe (alamarBlue cell viability)", "conditions": "2 μM, 0.1% DMSO, 12 h", "protocol": "(§4) FIGS. 28A-28C Cytotoxicity of the probe. Pre-seeded in 96-well plates, HEK293, HeLa, and A549 cells were incubated in complete DMEM containing different concentrations of leuco-BODIPY [dissolved in dimethyl sulfoxide (DMSO)] for 12 h. The alamarBlue reagent (Invitrogen) was used to test cell viability by measuring the optical absorbance at 570 nm and 600 nm by a Multiskan GO UV-absorbance microplate reader. Reported data represent mean±SD from three independent experiments.\n(§5) We studied the mechanism for the cellular uptake of our probe by a pharmacological approach."}, "A549 cells [5]": {"tested_on": "A549 cells", "test": "Cytotoxicity of the probe (alamarBlue cell viability)", "conditions": "2 μM, 0.1% DMSO, 12 h", "protocol": "as §4, §5"}, "HeLa cells [6]": {"tested_on": "HeLa cells", "test": "Cytotoxicity of the probe (alamarBlue cell viability)", "conditions": "2 μM, 0.1% DMSO, 12 h", "protocol": "as §4, §5"}, "HEK293 cells [7]": {"tested_on": "HEK293 cells", "test": "Pathway for the cellular entry of the probe (NaN3 or 4 °C block of energy-dependent endocytosis)", "conditions": "5 μM probe, 30 min", "protocol": "(§6) FIGS. 29A-29F Pathway for the cellular uptake of the probe. The cells were either (FIGS. 29A-29C) treated with sodium azide (NaN3) or (FIGS. 29D-29F) incubated at 4° C. for blocking energy-dependent endocytosis (red bars). Cells under normal cell culture conditions (37° C. without NaN3) serve as the positive control (green bars). Statistical analysis was conducted by two-tailed Student's t test. Not significant (ns) P>0.05. Error bar indicates standard deviation.\n(§7) Cells were firstly cultured in a 96-well plate and allowed to reach about 90% confluence. In our first experiment, the cells were either pretreated in 0.1 mL of complete DMEM containing 5 mM NaN3 (Sigma) at 37° C. for 3 h. After that, the medium was replaced by 0.1 mL of complete medium containing 5 mM NaN3 and 5 μM leuco-BODIPY (in 0.5% DMSO) at 37° C. for another 30 min. In our second experiment, the cells were preincubated with 0.1 mL of complete DMEM inside a 4° C. refrigerator for 30 min. After that, the medium was replaced by 0.1 mL of complete medium containing 5 μM leuco-BODIPY (in 0.5% DMSO) for another 30 min and incubated at 4° C. As the […], cells were incubated with 0.1 mL of complete medium containing 5 μM leuco-BODIPY (in 0.5% DMSO) at 37° C. for 30 min. At the end of both experiments, the fluorescence of the treated cells was measured by a microplate reader (ThermoFisher Fluoroskan Ascent, Waltham, MA) at an excitation wavelength of 584 nm and emission wavelength of 612 nm.\nas §5"}, "A549 cells [8]": {"tested_on": "A549 cells", "test": "Pathway for the cellular entry of the probe (NaN3 or 4 °C block of energy-dependent endocytosis)", "conditions": "5 μM probe, 30 min", "protocol": "as §6, §7, §5"}, "HeLa cells [9]": {"tested_on": "HeLa cells", "test": "Pathway for the cellular entry of the probe (NaN3 or 4 °C block of energy-dependent endocytosis)", "conditions": "5 μM probe, 30 min", "protocol": "as §6, §7, §5"}, "[10]": {"conditions": "pretreatment with sodium azide (5 mM)"}}, "data": [{"smiles": "CCOC(=O)C(=Cc1ccc2n1[B-](F)(F)n1c(C=C(C(=O)OCC)C(=O)OCC)ccc1C2(OC)c1ccncc1)C(=O)OCC", "note": "[leuco-BODIPY]", "values": [{"measurement": "Mean fluorescence signal per EV", "setting": "[1]", "value": "4.17 × 10^−7 a.u."}, {"measurement": "Mean fluorescence signal per EV", "setting": "[2]", "value": "4.63 × 10^−7 a.u."}, {"measurement": "Mean fluorescence signal per EV", "setting": "[3]", "value": "1.67 × 10^−6 a.u."}, {"measurement": "cell viability", "setting": "HEK293 cells [4]", "value": "did not severely reduce cell viability"}, {"measurement": "cell viability", "setting": "A549 cells [5]", "value": "did not severely reduce cell viability"}, {"measurement": "cell viability", "setting": "HeLa cells [6]", "value": "did not severely reduce cell viability"}, {"measurement": "cellular uptake of the probe", "setting": "HEK293 cells [7]; preincubation at 4 °C", "value": "did not significantly affect"}, {"measurement": "cellular uptake of the probe", "setting": "HEK293 cells [7]; [10]", "value": "did not significantly affect"}, {"measurement": "cellular uptake of the probe", "setting": "A549 cells [8]; preincubation at 4 °C", "value": "did not significantly affect"}, {"measurement": "cellular uptake of the probe", "setting": "A549 cells [8]; [10]", "value": "did not significantly affect"}, {"measurement": "cellular uptake of the probe", "setting": "HeLa cells [9]; preincubation at 4 °C", "value": "did not significantly affect"}, {"measurement": "cellular uptake of the probe", "setting": "HeLa cells [9]; [10]", "value": "did not significantly affect"}]}]}
